Like-named read-outs stand apart in the source and are kept apart here.
What was measured:
Experiment in all cases: biochemical
Design in all cases: KINOMEscan scanMAX competition binding, DNA-tagged kinases, qPCR read-out, percent control at 300 nM
[1] = target: T1, ABL1(F317I)-nonphosphorylated (Homo sapiens, UniProt P00519, F317I)
T1 construct: nonphosphorylated

CLK3 = CLK3 (Homo sapiens, UniProt P49761)
FLT4 = FLT4 (Homo sapiens, UniProt P35916)
IKK-epsilon = target: T2, IKK-epsilon (Homo sapiens, UniProt Q14164)
T2 construct: gene IKBKE
T2 sequence (Q14164 1-716): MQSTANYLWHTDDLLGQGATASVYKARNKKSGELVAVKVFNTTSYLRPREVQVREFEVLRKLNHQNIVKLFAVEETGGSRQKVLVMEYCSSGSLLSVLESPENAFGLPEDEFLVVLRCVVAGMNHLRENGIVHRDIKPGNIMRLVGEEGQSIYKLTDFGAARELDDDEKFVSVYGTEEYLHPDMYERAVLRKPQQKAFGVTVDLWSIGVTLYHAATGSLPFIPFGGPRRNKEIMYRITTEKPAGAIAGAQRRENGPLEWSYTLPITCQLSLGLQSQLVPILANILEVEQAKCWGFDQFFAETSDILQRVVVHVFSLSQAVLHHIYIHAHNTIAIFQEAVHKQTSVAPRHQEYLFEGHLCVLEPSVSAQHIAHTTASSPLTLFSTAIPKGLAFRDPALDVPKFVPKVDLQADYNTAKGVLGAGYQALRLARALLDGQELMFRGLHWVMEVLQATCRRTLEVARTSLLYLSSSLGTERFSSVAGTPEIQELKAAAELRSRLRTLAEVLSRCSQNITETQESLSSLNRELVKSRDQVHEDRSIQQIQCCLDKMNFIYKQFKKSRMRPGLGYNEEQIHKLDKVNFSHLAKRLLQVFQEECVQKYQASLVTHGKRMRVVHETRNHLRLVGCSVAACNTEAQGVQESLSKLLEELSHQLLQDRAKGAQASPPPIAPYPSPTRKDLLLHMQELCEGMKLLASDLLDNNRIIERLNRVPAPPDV

TNIK = TNIK (Homo sapiens, UniProt Q9UKE5)
WEE1 = WEE1 (Homo sapiens, UniProt P30291)
PRKCD = PRKCD (Homo sapiens, UniProt Q05655)
RIPK5 = target: T3, RIPK5 (Homo sapiens, UniProt Q6XUX3)
T3 construct: gene DSTYK
T3 sequence (Q6XUX3 1-929): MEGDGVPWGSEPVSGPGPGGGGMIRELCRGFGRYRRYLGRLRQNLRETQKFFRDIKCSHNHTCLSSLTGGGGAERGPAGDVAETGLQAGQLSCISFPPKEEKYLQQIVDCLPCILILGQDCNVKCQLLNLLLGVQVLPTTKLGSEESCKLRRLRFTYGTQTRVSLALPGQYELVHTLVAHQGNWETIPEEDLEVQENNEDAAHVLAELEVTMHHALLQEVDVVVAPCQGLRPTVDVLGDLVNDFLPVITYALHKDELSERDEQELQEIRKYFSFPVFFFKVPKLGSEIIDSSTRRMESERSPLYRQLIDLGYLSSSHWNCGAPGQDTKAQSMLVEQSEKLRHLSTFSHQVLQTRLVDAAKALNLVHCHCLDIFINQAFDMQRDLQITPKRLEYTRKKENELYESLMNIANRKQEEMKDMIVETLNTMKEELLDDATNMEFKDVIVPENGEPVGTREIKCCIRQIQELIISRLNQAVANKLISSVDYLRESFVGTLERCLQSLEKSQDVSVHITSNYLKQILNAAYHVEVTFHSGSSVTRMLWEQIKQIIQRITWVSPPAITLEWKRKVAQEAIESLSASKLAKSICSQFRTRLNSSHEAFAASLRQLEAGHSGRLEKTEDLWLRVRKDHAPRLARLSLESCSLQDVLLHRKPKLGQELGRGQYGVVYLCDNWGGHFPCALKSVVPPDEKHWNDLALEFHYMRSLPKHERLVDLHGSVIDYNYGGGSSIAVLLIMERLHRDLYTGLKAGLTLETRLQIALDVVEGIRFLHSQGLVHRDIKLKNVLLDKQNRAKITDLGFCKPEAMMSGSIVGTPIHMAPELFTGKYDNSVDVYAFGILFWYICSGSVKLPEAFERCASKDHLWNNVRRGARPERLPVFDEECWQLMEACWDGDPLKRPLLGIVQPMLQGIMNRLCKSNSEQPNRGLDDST

[2] = read-out: Percent control / Acalabrutinib
[3] = read-out: Percent control / Ibrutinib
[4] = read-out: Percent control / Tirabrutinib
[5] = read-out: Percent control / Zanubrutinib

T1 sequence (P00519 whole entry F317I): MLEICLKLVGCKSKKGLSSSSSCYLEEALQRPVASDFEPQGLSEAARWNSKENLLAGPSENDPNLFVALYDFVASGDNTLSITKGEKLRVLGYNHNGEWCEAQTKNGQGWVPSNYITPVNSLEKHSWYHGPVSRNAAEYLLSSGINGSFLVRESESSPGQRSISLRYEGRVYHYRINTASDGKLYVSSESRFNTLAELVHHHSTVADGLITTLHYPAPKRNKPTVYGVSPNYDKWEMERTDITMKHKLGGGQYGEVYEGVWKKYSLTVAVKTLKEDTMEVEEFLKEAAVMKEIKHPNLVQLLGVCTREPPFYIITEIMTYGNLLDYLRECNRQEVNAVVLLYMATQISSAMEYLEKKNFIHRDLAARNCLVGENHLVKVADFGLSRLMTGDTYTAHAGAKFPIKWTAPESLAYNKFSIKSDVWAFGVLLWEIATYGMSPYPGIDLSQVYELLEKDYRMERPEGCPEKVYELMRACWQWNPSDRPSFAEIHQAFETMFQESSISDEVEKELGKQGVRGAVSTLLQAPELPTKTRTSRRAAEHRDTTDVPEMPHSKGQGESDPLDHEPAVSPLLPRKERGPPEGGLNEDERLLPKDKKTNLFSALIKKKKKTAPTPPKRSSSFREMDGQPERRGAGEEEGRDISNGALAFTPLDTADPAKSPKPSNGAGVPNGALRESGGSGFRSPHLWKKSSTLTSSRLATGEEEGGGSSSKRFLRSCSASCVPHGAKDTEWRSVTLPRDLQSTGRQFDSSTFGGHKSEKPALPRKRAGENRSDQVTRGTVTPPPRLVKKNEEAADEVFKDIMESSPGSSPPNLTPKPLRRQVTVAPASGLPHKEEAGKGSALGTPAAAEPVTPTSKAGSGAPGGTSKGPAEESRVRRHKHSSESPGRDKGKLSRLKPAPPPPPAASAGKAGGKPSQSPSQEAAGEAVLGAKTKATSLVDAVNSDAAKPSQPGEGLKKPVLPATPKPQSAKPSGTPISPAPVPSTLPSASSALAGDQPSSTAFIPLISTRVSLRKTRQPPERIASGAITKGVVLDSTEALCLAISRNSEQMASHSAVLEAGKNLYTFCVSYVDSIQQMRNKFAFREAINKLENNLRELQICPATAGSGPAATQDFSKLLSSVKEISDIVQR
Chain of WEE1 (P30291 whole entry): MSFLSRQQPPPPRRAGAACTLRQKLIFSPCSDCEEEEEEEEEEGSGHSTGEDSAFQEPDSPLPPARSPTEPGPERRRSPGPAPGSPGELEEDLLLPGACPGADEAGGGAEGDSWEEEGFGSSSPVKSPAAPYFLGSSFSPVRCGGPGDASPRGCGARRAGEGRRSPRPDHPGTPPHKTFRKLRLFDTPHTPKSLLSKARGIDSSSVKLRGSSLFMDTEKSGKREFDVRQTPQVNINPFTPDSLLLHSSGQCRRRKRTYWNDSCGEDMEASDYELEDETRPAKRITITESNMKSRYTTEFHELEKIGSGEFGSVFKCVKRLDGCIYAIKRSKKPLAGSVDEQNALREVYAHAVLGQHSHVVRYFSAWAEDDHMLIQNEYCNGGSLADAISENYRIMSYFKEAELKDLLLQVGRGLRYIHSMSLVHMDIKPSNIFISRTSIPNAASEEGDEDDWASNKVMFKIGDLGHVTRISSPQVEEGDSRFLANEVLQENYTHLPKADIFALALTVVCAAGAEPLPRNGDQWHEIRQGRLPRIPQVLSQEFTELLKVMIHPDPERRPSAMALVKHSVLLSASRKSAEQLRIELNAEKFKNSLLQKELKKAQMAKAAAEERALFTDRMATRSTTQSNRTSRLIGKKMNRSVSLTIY
Chain of CLK3 (P49761 whole entry): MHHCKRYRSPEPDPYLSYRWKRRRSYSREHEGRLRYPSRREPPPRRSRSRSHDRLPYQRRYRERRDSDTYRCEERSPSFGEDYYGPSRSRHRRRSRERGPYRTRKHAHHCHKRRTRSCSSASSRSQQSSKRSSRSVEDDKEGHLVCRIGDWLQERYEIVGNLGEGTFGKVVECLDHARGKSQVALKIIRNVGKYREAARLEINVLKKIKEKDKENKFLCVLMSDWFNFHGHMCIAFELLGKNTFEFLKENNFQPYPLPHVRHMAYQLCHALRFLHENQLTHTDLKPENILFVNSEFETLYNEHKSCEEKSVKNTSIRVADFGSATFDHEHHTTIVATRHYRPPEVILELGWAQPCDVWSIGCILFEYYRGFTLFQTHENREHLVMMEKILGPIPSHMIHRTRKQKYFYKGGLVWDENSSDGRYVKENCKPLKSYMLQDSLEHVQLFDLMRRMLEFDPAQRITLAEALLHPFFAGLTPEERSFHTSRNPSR
Chain of PRKCD (Q05655 whole entry): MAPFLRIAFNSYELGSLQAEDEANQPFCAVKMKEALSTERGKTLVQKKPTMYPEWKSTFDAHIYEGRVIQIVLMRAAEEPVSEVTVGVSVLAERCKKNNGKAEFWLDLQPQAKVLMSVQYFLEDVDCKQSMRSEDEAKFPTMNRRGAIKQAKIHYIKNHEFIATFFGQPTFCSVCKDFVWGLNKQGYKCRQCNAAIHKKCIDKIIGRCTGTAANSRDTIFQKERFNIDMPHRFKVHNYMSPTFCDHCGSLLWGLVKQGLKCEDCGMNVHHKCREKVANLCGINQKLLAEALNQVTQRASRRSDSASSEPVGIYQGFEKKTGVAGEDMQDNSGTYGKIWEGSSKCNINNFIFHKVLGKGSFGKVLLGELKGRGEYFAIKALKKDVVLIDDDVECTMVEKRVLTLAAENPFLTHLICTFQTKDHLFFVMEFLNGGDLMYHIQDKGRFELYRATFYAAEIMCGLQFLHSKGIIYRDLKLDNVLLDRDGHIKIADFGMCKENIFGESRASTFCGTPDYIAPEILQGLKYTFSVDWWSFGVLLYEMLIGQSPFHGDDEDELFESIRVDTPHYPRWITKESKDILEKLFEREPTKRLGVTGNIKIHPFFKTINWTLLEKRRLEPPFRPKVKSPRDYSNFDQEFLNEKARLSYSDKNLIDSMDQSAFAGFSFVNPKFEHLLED
Chain of FLT4 (P35916 whole entry): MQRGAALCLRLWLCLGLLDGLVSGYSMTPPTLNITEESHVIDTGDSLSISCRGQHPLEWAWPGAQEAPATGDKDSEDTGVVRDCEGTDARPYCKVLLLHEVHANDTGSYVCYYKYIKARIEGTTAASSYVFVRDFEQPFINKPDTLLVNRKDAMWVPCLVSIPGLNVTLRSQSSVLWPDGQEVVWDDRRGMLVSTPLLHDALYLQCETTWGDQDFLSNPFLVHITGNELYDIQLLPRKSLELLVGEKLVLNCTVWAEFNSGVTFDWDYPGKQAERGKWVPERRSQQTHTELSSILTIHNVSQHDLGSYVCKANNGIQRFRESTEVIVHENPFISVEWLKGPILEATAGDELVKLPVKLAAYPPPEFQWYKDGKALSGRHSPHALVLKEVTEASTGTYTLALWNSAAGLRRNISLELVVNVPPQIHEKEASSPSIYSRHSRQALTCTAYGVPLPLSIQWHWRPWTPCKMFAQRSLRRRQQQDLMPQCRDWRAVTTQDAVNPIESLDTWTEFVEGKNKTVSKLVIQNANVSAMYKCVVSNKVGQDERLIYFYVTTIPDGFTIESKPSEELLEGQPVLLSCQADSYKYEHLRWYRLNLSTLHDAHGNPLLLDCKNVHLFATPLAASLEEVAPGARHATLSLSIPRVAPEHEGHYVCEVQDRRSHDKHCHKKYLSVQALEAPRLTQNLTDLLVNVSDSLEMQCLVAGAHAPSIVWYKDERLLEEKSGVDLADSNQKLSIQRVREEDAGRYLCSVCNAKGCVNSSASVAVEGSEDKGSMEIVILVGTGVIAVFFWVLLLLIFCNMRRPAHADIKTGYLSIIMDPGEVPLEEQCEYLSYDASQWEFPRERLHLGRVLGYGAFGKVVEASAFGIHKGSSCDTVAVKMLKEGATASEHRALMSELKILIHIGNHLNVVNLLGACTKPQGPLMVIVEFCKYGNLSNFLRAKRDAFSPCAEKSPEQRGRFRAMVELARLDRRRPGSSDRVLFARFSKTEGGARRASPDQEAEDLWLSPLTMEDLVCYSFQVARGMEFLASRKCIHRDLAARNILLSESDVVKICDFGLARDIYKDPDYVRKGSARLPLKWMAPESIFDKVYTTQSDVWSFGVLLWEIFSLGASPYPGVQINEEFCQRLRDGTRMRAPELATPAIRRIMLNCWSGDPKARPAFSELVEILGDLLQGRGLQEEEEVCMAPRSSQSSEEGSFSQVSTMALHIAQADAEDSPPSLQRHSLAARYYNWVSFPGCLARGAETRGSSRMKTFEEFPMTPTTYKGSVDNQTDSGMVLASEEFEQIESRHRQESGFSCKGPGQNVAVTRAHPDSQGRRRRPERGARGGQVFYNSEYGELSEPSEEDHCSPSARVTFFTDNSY

Compound `CC#CC(=O)N1CCC[C@H]1c1nc(-c2ccc(C(=O)Nc3ccccn3)cc2)c2c(N)nccn12` [Acalabrutinib] has a remaining binding at 0.3 µM [1, 2] of 81%, a remaining binding at 0.3 µM (CLK3; [2]) of 94% and a remaining binding at 0.3 µM (FLT4; [2]) of 96%. It also gave a remaining binding at 0.3 µM (IKK-epsilon; [2]) of 76%, a remaining binding at 0.3 µM (TNIK; [2]) of 79% and a remaining binding at 0.3 µM (WEE1; [2]) of 80%.
`C=CC(=O)N1CCC[C@@H](n2nc(-c3ccc(Oc4ccccc4)cc3)c3c(N)ncnc32)C1` [Ibrutinib] was tested, and the remaining binding at 0.3 µM [1, 3] was 42%, the remaining binding at 0.3 µM (FLT4; [3]) was 57% and the remaining binding at 0.3 µM (IKK-epsilon; [3]) was 83%. It also gave a remaining binding at 0.3 µM (PRKCD; [3]) of 90%, a remaining binding at 0.3 µM (RIPK5; [3]) of 47% and a remaining binding at 0.3 µM (TNIK; [3]) of 86%. The remaining binding at 0.3 µM (WEE1; [3]) was 89%.
In the case of `CC#CC(=O)N1CC[C@@H](n2c(=O)n(-c3ccc(Oc4ccccc4)cc3)c3c(N)ncnc32)C1` [Tirabrutinib], the remaining binding at 0.3 µM [1, 4] is reported as 77%, the remaining binding at 0.3 µM (CLK3; [4]) is reported as 82% and the remaining binding at 0.3 µM (FLT4; [4]) is reported as 99%. It also gave a remaining binding at 0.3 µM (IKK-epsilon; [4]) of 92%, a remaining binding at 0.3 µM (PRKCD; [4]) of 90% and a remaining binding at 0.3 µM (RIPK5; [4]) of 93%. For the same compound, the remaining binding at 0.3 µM (TNIK; [4]) was 92% and the remaining binding at 0.3 µM (WEE1; [4]) was 93%.
Work on `C=CC(=O)N1CCC([C@@H]2CCNc3c(C(N)=O)c(-c4ccc(Oc5ccccc5)cc4)nn32)CC1` [Zanubrutinib] yielded a remaining binding at 0.3 µM (CLK3; [5]) of 82%, a remaining binding at 0.3 µM (FLT4; [5]) of 100% and a remaining binding at 0.3 µM (IKK-epsilon; [5]) of 100%. It also gave a remaining binding at 0.3 µM (PRKCD; [5]) of 83%, a remaining binding at 0.3 µM (RIPK5; [5]) of 100% and a remaining binding at 0.3 µM (TNIK; [5]) of 85%. The remaining binding at 0.3 µM (WEE1; [5]) was 100%.
